Assays:
Botrytis cinerea = test: Effectiveness on Botrytis cinerea at 330 ppm; assay type: in vivo
Alternaria brassicae = test: Effectiveness on Alternaria brassicae at 330 ppm; assay type: in vivo
Peronospora parasitica = test: Efficacy against Peronospora parasitica at 330 ppm; assay type: in vivo
Pyrenophora teres = test: In vivo test on Pyrenophora teres (barley net blotch); settings: barley plants (Express variety), preventive spray, dose of 330 ppm, grading 12 days after contamination, in comparison with control plants
Procedure: In Vivo Test on Pyrenophora teres (Barley Net Blotch)
The active ingredient tested is prepared by potter homogenisation in a concentrated suspension type formulation at 100 g/l. This suspension is then diluted with water to obtain the desired active material concentration.
Barley plants (Express variety) in starter cups, sown on a 50/50 peat soil-pozzolana substrate and grown at 12° C., are treated at the 1-leaf stage (10 cm tall) by spraying with the aqueous suspension described above. Plants, used as controls, are treated with an aqueous solution not containing the active material.
After 24 hours, the plants are contaminated by spraying them with an aqueous suspension of Pyrenophora teres spores (12,000 spores per ml). The spores are collected from a 12-day-old culture The contaminated barley plants are incubated for 24 hours at about 20° C. and at 100% relative humidity, and then for 12 days at 80% relative humidity.
Grading is carried out 12 days after the contamination, in comparison with the control plants. Under these conditions, good (at least 50%) or total protection is observed at a dose of 330 ppm with the following compounds: A-1.

Row | SMILES | effectiveness on Botrytis cinerea (Botrytis cinerea) | effectiveness on Alternaria brassicae (Alternaria brassicae) | efficacy against Peronospora parasitica (Peronospora parasitica) | protection (good (at least 50%) or total) (Pyrenophora teres)
1 | CCNC(=O)C(Cc1ncc(C(F)(F)F)cc1Cl)NC(=O)c1ccccc1 (stereo not shown) [compound 304, N-{1-ethylcarbamoyl-2-[3-chloro-5-(trifluoromethyl)-2-pyridinyl]ethyl}-benzamide] | zero effectiveness | – | – | –
2 | CCNC(=O)C(Cc1ncc(C(F)(F)F)cc1Cl)NC(=O)c1ccccc1Br (stereo not shown) [compound 310, N-{1-ethylcarbamoyl-2-[3-chloro-5-(trifluoromethyl)-2-pyridinyl]ethyl}-2-bromobenzamide] | zero effectiveness | – | – | –
3 | O=C(Cc1cccs1)NCc1ncc(C(F)(F)F)cc1Cl [compound 101, N-{[3-chloro-5-(trifluoromethyl)-2-pyridinyl]methyl}-5-thienylacetamide] | no efficacy | poor efficacy | no efficacy | –
4 | CCNC(=O)C(Cc1ncc(C(F)(F)F)cc1Cl)NC(=O)c1ccc(Cl)cc1 (stereo not shown) [compound 306, N-{1-ethylcarbamoyl-2-[3-chloro-5-(trifluoromethyl)-2-pyridinyl]ethyl}-4-chlorobenzamide] | zero effectiveness | – | – | –
5 | CCNC(=O)C(Cc1ncc(C(F)(F)F)cc1Cl)NC(=O)c1cccc([N+](=O)[O-])c1 (stereo not shown) [compound 307, N-{1-ethylcarbamoyl-2-[3-chloro-5-(trifluoromethyl)-2-pyridinyl]ethyl}-3-nitrobenzamide] | zero effectiveness | poor effectiveness | – | –
6 | Cn1cc(C(=O)NCCc2c(F)c(F)nc(F)c2F)c(C(F)F)n1 [Compound A-1, 3-(difluoromethyl)-1-methyl-N-[2-(2,3,5,6-tetrafluoro-4-pyridinyl)ethyl]-1H-pyrazole-4-carboxamide] | – | – | – | at least 50%
7 | CNC(=O)C(Cc1ncc(C(F)(F)F)cc1Cl)NC(=O)c1ccccc1 (stereo not shown) [compound 314, N-{1-methylcarbamoyl-2-[3-chloro-5-(trifluoromethyl)-2-pyridinyl]ethyl}-benzamide] | zero effectiveness | – | – | –
8 | CNC(=O)C(Cc1ncc(C(F)(F)F)cc1Cl)NC(=O)c1ccc(-c2ccccc2)cc1 (stereo not shown) [compound 316, N-{1-methylcarbamoyl-2-[3-chloro-5-(trifluoromethyl)-2-pyridinyl]ethyl}-4-phenylbenzamide] | zero effectiveness | poor effectiveness | – | –
9 | CNC(=O)C(Cc1ncc(C(F)(F)F)cc1Cl)NC(=O)c1ccc(OC)cc1 (stereo not shown) [compound 315, N-{1-methylcarbamoyl-2-[3-chloro-5-(trifluoromethyl)-2-pyridinyl]ethyl}-4-methoxybenzamide] | zero effectiveness | – | – | –

Reference: US20080096933A1, “4-Pyridinylethylcarboxamide Derivatives Useful as Fungicides” (priority 2004, published 2008)
